Data reported in PubChem BioAssay AID2060620 (Molecular Pharmacology Branch, DTP, NCI, 2025).
pIC50: −log10 of the molar value.

System: 328373-195-R-J1-PDC complex spheroids, viability % test/control
Test: Anticancer human tumor 328373-195-R-J1-PDC patient-derived head and neck squamous carcinoma cell line growth inhibition [CLK]
Conditions: for pIC50: curve of first compound; for viability, T/C: stronger effect = lower value; active means viability on the fitted dose curve at most 10% of control; inactive means the rest
Method in brief: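 Patient-derived tumor cells grown as complex spheroids with HUVEC endothelial cells and mesenchymal stem cells, treated with drug combinations. Concentrations descend in half-log steps from near clinical Cmax, or from 10 microM if Cmax unknown.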
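Further: spheroids exposed to the agents for 7 days.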

CC1COCCN1c1cc(C2(S(C)(=N)=O)CC2)nc(-c2ccnc3[nH]ccc23)n1 (configuration not stated) + CNC(=O)c1ccc(Nc2nc(OC3CCCC3)c3c(-c4ccc5nc(C)oc5c4)c[nH]c3n2)c(OC)c1
active: viability, T/C (second compound 0.0316 µM, first compound 10 µM) 5.59% | viability, T/C (second compound 0.1 µM, first compound 0.316 µM) 8.26% | viability, T/C (second compound 0.1 µM, first compound 1 µM) 9.68% | viability, T/C (second compound 0.1 µM, first compound 3.16 µM) 5.72% | viability, T/C (second compound 0.1 µM, first compound 10 µM) 3.41% | viability, T/C (second compound 0.316 µM, first compound 0.1 µM) 9.55% | viability, T/C (second compound 0.316 µM, first compound 0.316 µM) 8.53% | viability, T/C (second compound 0.316 µM, first compound 1 µM) 6.94% | viability, T/C (second compound 0.316 µM, first compound 3.16 µM) 5.01% | viability, T/C (second compound 0.316 µM, first compound 10 µM) 4.53% | viability, T/C (second compound 1 µM, first compound 0.0316 µM) 8.51% | viability, T/C (second compound 1 µM, first compound 0.1 µM) 8.26% | viability, T/C (second compound 1 µM, first compound 0.316 µM) 8.32% | viability, T/C (second compound 1 µM, first compound 1 µM) 6.7% | viability, T/C (second compound 1 µM, first compound 3.16 µM) 5.13% | viability, T/C (second compound 1 µM, first compound 10 µM) 2.61% | viability, T/C (second compound 3.16 µM, first compound 0.1 µM) 10.7% | viability, T/C (second compound 3.16 µM, first compound 0.316 µM) 8.57% | viability, T/C (second compound 3.16 µM, first compound 1 µM) 7.75% | viability, T/C (second compound 3.16 µM, first compound 3.16 µM) 4.82% | viability, T/C (second compound 3.16 µM, first compound 10 µM) 2.48% | viability, T/C (second compound 10 µM, first compound 0.316 µM) 8.76% | viability, T/C (second compound 10 µM, first compound 1 µM) 8.59% | viability, T/C (second compound 10 µM, first compound 3.16 µM) 5.88% | viability, T/C (second compound 10 µM, first compound 10 µM) 2.34%
inactive: viability, T/C (second compound 0.0316 µM, first compound 0.0316 µM) 64.5% | viability, T/C (second compound 0.0316 µM, first compound 0.1 µM) 54.4% | viability, T/C (second compound 0.0316 µM, first compound 0.316 µM) 45.9% | viability, T/C (second compound 0.0316 µM, first compound 1 µM) 39.2% | viability, T/C (second compound 0.0316 µM, first compound 3.16 µM) 18.9% | viability, T/C (second compound 0.1 µM, first compound 0.0316 µM) 13.4% | viability, T/C (second compound 0.1 µM, first compound 0.1 µM) 10.1% | viability, T/C (second compound 0.316 µM, first compound 0.0316 µM) 9.78% | viability, T/C (second compound 3.16 µM, first compound 0.0316 µM) 10.1% | viability, T/C (second compound 10 µM, first compound 0.0316 µM) 12.3% | viability, T/C (second compound 10 µM, first compound 0.1 µM) 10.4%
> 7.50: pIC50 (second compound 0.1 µM) | pIC50 (second compound 0.316 µM) | pIC50 (second compound 1 µM) | pIC50 (second compound 3.16 µM) | pIC50 (second compound 10 µM)
6.67: pIC50 (second compound 0.0316 µM)
